“Also recorded” adds a separate entry of the source.
Experiments:
[1] = cited from earlier work
T-47D lineage = assay: SAMBA image analysis test; type: cell-based, human
From the text: The molecules which have shown themselves to be the most interesting in the MTT test have been evaluated in an image analysis test called SAMBA. In effect, the recent advances in the field of image analysis have allowed new approaches to the evaluation of different cellular kinetic parameters and the measurement of the distribution of chromatin. The data thereby provided are processed using different statistical tests.
The use of the Systeme d'Analyses Microscopiques a Balayage Automatique 2005 (SAMBA 2005, Alcatel TITN, France), (System of Microscopic Analyses with Automatic Sweep 2005) permits measurement of the influence of the compounds researched at three levels:
The cells in exponential growth are cultured on small glass slip plates (Kiss R. et al. Eur. J. Cancer, 27, 1268-1274, 1991) at the rate of from […] cells/ml (depending on the cellular line being considered) in 3 ml of minimum essential medium (MEM, Gibco). […]
The interest in the Feulgen coloration resides in the possibility of colouring the DNA in a specific and stoichiometric fashion (Giroud F., Cell, 44, 177-188, 1982; Kiss R. et al., J. Histochem. Cytochem., 41, 6, 935-945, 1993). For each experimental condition, 900 nuclei are analysed by the image analyser. […]
These 15 parameters are calculated by specific software, from: […]

MCF-7 cells = assay: Effect on oestrogen-induced proliferation of MCF-7 cells; type: cell-based, human; settings: estradiol 10^-9 M
Method: MCF-7 cells and HeLa are cultivated in DMFM with phenol red to which 5% foetal calf serum is added. […] The experimental tests are carried out in DMEM without phenol red to which foetal calf serum treated with dextran carbon is added at 3%. […] The experiments using the different retinoids are carried out sheltered from the light so as to avoid any isomerisation.
So as to test the anti-proliferation effect of the retinoids, growth experiments under oestrogenic conditions were carried out on cells MCF-7 and T-47D. These are the human oestrogen-dependent mammary cancer cells which express the receptor to RE oestrogens. The effect of the molecules is evaluated after 7 days of culture in oestrogenic conditions (estradiol 10^-9 M) by dosing the cellular DNA. The cells are distributed in 24 well plates at a density of 2×10^4 cells per well. The tests with the different retinoids are carried out in triplicate and the culture medium is changed after 4 days of growth.

In the case of `CC1=C(/C=C/C(C)=C/C=C/C(C)=C/C(=O)O)C(C)(C)CCC1` [CB16178, all-trans retinoic acid, reference compound], the “metabolism (in words)” value ([1]; chronic treatment) is given as “an inducer of its own metabolism” and the “adverse effects in chronic treatment (in words)” value [1] is given as “powerful effect of hypervitaminose, of mucocutaneous toxicity and of teratogenecity”.
In the case of `C/C(=C/c1ccc2c(c1)C(C)(C)CCC2(C)C)c1ccc(-c2nnn[nH]2)cc1` [CB92834], the “morphonuclear / anti-tumoral effect (in words)” value (T-47D lineage) is reported as “not linked to a cytotoxic effect; also recorded: mediated by an activation of the cellular death and/or an inhibition of the proliferation due to the induction of the cellular differentiation”.
For `C/C(=C\c1ccc(C(=O)O)cc1)c1ccc2c(c1)C(C)(C)CCC2(C)C` [TTNPB, reference compound], the “morphonuclear / anti-tumoral effect (in words)” value (T-47D lineage) was “strongly suggests a direct correlation between the cytotoxic effect of the molecule and its anti-tumoral activity; also recorded: exercises its anti-tumoral activity through a direct cytotoxic (cytocidal) effect” and the “effect on oestrogen-induced growth, MCF-7 (in words)” value (MCF-7 cells) was “stronger inhibiting effect than the natural ligands (all-trans RA and 9-cis RA) and than LGD1069”.

From patent US6265423A, “Aromatic polycyclic retinoid-type derivatives, method for preparing same, and use thereof for making pharmaceutical and cosmetic compositions” (priority 1996, dated 2001)
